Results: paper PMC4503722, “Novel Phenotypic Outcomes Identified for a Public Collection of Approved Drugs from a Publicly Accessible Panel of Assays” (PLoS ONE, 2015)
Where two headings read alike, the source gives them in different places.

Tests used:
[1] = tested on: HCT116; test: cells; assay type: cell-based; settings: for IC50: read-out: Basal_Viability ATP HCT116 summarized IC50
[2] = tested on: RKO; test: cells; assay type: cell-based; settings: for Basal_Viability ATP RKO IC50/EC50 / IC50: assay number 29; for IC50: read-out: Basal_Viability ATP RKO summarized IC50
[3] = tested on: Colo320; test: cells; assay type: cell-based; settings: for IC50: read-out: Basal_Viability ATP Colo 320 summarized IC50
[4] = tested on: DLD-1; test: cells; assay type: cell-based; settings: for IC50: read-out: Basal_Viability ATP DLD-1 summarized IC50
[5] = tested on: HT-29; test: cells; assay type: cell-based; settings: for IC50: read-out: Basal_Viability ATP HT-29 summarized IC50
[6] = tested on: SNU-C1; test: cells; assay type: cell-based; settings: for IC50: read-out: Basal_Viability ATP SNU-C1 summarized IC50
[7] = tested on: SW480; test: cells; assay type: cell-based; settings: for IC50: read-out: Basal_Viability ATP SW480 summarized IC50
[8] = tested on: ECFC/ADSC co-culture cell nuclei number; settings: read-out: VEGF_ADSC\ECFC Angio Hoechst NucArea summarized IC50
[9] = tested on: HeLa cells; test: cells; assay type: cell-based;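 on Hela CellCycMod PI 4N summarized IC50: value tracks stimulation of 4N DNA content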
[10] = tested on: endothelial tube formation in co-cultures of ECFCs and ADSCs treated with VEGF; test: cells; assay type: cell-based, human; settings: read-out: VEGF_ADSC\ECFC Angio CD31 TubeArea summarized IC50

CC(C)NCC(O)COc1ccc(CCOCC2CC2)cc1 (stereo not shown) [NCGC00015159-11]
Basal_Viability ATP HCT116 IC50/EC50 ([1]; assay number 25, basal): > 20 µM | Basal_Viability ATP RKO IC50/EC50 [2]: > 20 µM | Basal_Viability ATP Colo 320 IC50/EC50 ([3]; assay number 27): 6.1657 µM | Basal_Viability ATP DLD-1 IC50/EC50 ([4]; assay number 23): > 20 µM | Basal_Viability ATP HT-29 IC50/EC50 ([5]; assay number 28): > 20 µM | Basal_Viability ATP SNU-C1 IC50/EC50 ([6]; assay number 30): > 20 µM | Basal_Viability ATP SW480 IC50/EC50 ([7]; assay number 24): > 20 µM

CCc1cccc2c3c([nH]c12)C(CC)(CC(=O)O)OCC3 (stereo not shown) [NCGC00015399-16]
Basal_Viability ATP HCT116 IC50/EC50 ([1]; assay number 25, basal): > 20 µM | Basal_Viability ATP RKO IC50/EC50 ([2]; basal): > 20 µM | Basal_Viability ATP Colo 320 IC50/EC50 ([3]; assay number 27, basal): > 20 µM | Basal_Viability ATP DLD-1 IC50/EC50 ([4]; assay number 23, basal): > 20 µM | Basal_Viability ATP HT-29 IC50/EC50 ([5]; assay number 28, basal): > 20 µM | Basal_Viability ATP SNU-C1 IC50/EC50 ([6]; assay number 30, basal): > 20 µM | Basal_Viability ATP SW480 IC50/EC50 ([7]; assay number 24, basal): > 20 µM

Oc1c(I)cc(Cl)c2cccnc12 [NCGC00016391-13]
IC50 [1]: 0.392 µM | IC50 [8]: > 10 µM | IC50 [3]: 0.586 µM | IC50 [4]: 0.345 µM | IC50 [5]: 18.6 µM | IC50 ([9]; read-out: Hela CellCycMod PI 2N summarized IC50): > 10 µM | IC50 ([9]; read-out: Hela CellCycMod PI 4N summarized IC50): > 10 µM | IC50 ([9]; read-out: Hela CellCycMod PI Cell Number summarized IC50): > 10 µM | IC50 ([9]; read-out: Hela CellCycMod PI MI summarized IC50): > 10 µM | IC50 [10]: > 10 µM | IC50 [6]: 0.475 µM | IC50 [7]: 0.441 µM

Cc1c(NC(=O)c2cccnc2)c(=O)n(-c2ccccc2)n1C [NCGC00016605-08]
IC50/EC50, Basal_Viability ATP HCT116 (assay number 25) ([1]; basal): > 20 µM | IC50/EC50, Basal_Viability ATP RKO (assay number 29) ([2]; basal): > 20 µM | IC50/EC50, Basal_Viability ATP Colo 320 (assay number 27) ([3]; basal): > 20 µM | IC50/EC50, Basal_Viability ATP DLD-1 (assay number 23) ([4]; basal): > 20 µM | IC50/EC50, Basal_Viability ATP HT-29 (assay number 28) ([5]; basal): > 20 µM | IC50/EC50, Basal_Viability ATP SNU-C1 (assay number 30) ([6]; basal): > 20 µM | IC50/EC50, Basal_Viability ATP SW480 (assay number 24) ([7]; basal): > 20 µM

O=C(O)c1ccccc1OP(=O)(O)O [NCGC00016668-06]
IC50 ([1]; assay number 25, basal): > 20 µM | IC50 ([2]; basal): > 20 µM | IC50 ([3]; assay number 27, basal): > 20 µM | IC50 ([4]; assay number 23, basal): > 20 µM | IC50 ([5]; assay number 28, basal): > 20 µM | IC50 ([6]; assay number 30, basal): > 20 µM | IC50 ([7]; assay number 24, basal): > 20 µM

CCn1cc(C(=O)O)c(=O)c2cnc(N3CCNCC3)nc21 [NCGC00016866-11]
Basal_Viability ATP HCT116 IC50/EC50 ([1]; assay number 25, basal): > 20 µM | Basal_Viability ATP RKO IC50/EC50 ([2]; basal): > 20 µM | Basal_Viability ATP Colo 320 IC50/EC50 ([3]; assay number 27, basal): > 20 µM | Basal_Viability ATP DLD-1 IC50/EC50 ([4]; assay number 23, basal): > 20 µM | Basal_Viability ATP HT-29 IC50/EC50 ([5]; assay number 28, basal): > 20 µM | Basal_Viability ATP SNU-C1 IC50/EC50 ([6]; assay number 30, basal): > 20 µM | Basal_Viability ATP SW480 IC50/EC50 ([7]; assay number 24, basal): > 20 µM

O=C(O)c1ccccc1S [NCGC00018107-05]
IC50 ([1]; assay number 25, basal): > 20 µM | IC50 ([2]; basal): > 20 µM | IC50 ([3]; assay number 27, basal): > 20 µM | IC50 ([4]; assay number 23, basal): > 20 µM | IC50 ([5]; assay number 28, basal): > 20 µM | IC50 ([6]; assay number 30, basal): > 20 µM | IC50 ([7]; assay number 24, basal): > 20 µM

[N-]=[N+]=CC(=O)OC[C@H](N)C(=O)O [NCGC00021876-04]
Basal_Viability ATP HCT116 IC50/EC50 ([1]; assay number 25, basal): > 20 µM | Basal_Viability ATP RKO IC50/EC50 ([2]; basal): > 20 µM | Basal_Viability ATP DLD-1 IC50/EC50 ([4]; assay number 23, basal): > 20 µM | Basal_Viability ATP HT-29 IC50/EC50 ([5]; assay number 28, basal): > 20 µM | Basal_Viability ATP SNU-C1 IC50/EC50 ([6]; assay number 30, basal): > 20 µM | Basal_Viability ATP SW480 IC50/EC50 ([7]; assay number 24, basal): > 20 µM

Cc1ccc(Cl)c(Nc2ccccc2C(=O)[O-])c1Cl.[Na+] [NCGC00023217-08]
Basal_Viability ATP HCT116 IC50/EC50 ([1]; assay number 25, basal): > 20 µM | Basal_Viability ATP RKO IC50/EC50 ([2]; basal): > 20 µM | Basal_Viability ATP Colo 320 IC50/EC50 ([3]; assay number 27, basal): > 20 µM | Basal_Viability ATP DLD-1 IC50/EC50 ([4]; assay number 23, basal): 15.1129 µM | Basal_Viability ATP HT-29 IC50/EC50 ([5]; assay number 28, basal): > 20 µM | Basal_Viability ATP SNU-C1 IC50/EC50 ([6]; assay number 30, basal): > 20 µM | Basal_Viability ATP SW480 IC50/EC50 ([7]; assay number 24, basal): > 20 µM
